# Assay results: patent publication US8785483B2, “Methods for treating COPD” (The Board of Regents of the University of Texas System, priority 2010, dated 2014)
# Legend:
# [1] = system: SPDEF; assay: RT-PCR of SPDEF in IL-13-treated SAEC monolayer; format: cell-based, human; conditions: SAEC monolayer at ALI, IL-13 18 h
# Procedure: FIGS. 6A-6B. AR inhibition prevents IL-13-induced expression of Mucin and transcription factor SPDEF in airway epithelial cell monolayer. (A) The airway epithelial cell monolayer at ALI was serum starved without or with fidarestat and incubated with IL-13 for 18 h. Total RNA was isolated and subsequently RT-PCR was performed to assess the expression of Muc5AC and SPDEF. The bar diagrams show densitometric analysis of the corresponding blots (n=4). *p<0.001 vs Control; **p<0.001 vs IL-13; (B) The monolayer of ciliated airway cells at ALI was treated with AR inhibitor for 24 h and subsequently incubated with IL-13 for 24 or 48 h. At the end of incubation, cell lysate was prepared and subjected to western blotting using antibodies against Muc5AC, Muc5B, and SPDEF. The membranes were stripped and re-probed with antibodies against GAPDH to show the equal loading of protein. A representative blot is shown (n=4). *p<0.0001 vs Control; **p<0.001 vs IL-13.
# For air-liquid interface (ALI) culture, SAEC were seeded at 8.5×10^4 cells/12-mm-diameter PET transparent insert with […] pores (12-well millicell culture insert; Millipore) and pre-coated with rat tail collagen type-1 (Sigma-Aldrich). The cells were grown submerged in the differentiation medium as described earlier by Zhen et al. (Am J Respir Cell Mol Biol 36: 244-253, 2007). […]
# [2] = system: IL-13; assay: RWE-induced expression of IL-13 in mouse lung (quantitative RT-PCR); format: in vivo; conditions: RWE-sensitized and challenged mice, fidarestat 7 mg/kg body wt/day in drinking water, lungs 16 h after challenge
# Procedure: FIG. 8. AR inhibition prevents RWE-induced expression of IL-13 in mouse lung. The mice were sensitized and challenged with PBS or RWE, without or with AR inhibitor and 16 h later lungs were harvested and total RNA was isolated (n=4). One microgram of total RNA from each sample was transcribed into first-strand cDNA and quantitative RT-PCR was conducted using IL-13 specific forward and reverse primers. The levels of RNA for the target sequences were determined by melting curve analysis. The values presented here are fold-change over the control. (**p<0.001). RWE, ragweed pollen extract; ARI, aldose reductase inhibitor. […]
# The mice lungs were harvested 16 h after RWE-challenge and total RNA was isolated. From each sample, one microgram of total RNA was transcribed into first-strand cDNA and quantitative RT-PCR was conducted using IL-13 specific forward and reverse primers 5′[…] […] Data were collected and analyzed by ABI 7000 System equipment and software (Applied Biosystems, Foster City, Calif.). […] Values of expression in fold increase (ratio of control) were calculated using the formula for relative expression by the method of Delta Delta CT (ΔΔCT): F=2^−^ΔΔ^C, F=fold change (ratio of control), −ΔΔCT=(CT Target−CTHKG)^Timex−(CT Target-CT HKG)^Time 0. […]
smiles,measurement,setting,value
"NC(=O)[C@@H]1C[C@]2(NC(=O)NC2=O)c2cc(F)ccc2O1 [fidarestat, (2S,4S)-2-aminoformyl-6-fluoro-spiro[chroman-4,4′-imidazolidine]-2′,5′-dione]",IL-13-induced SPDEF mRNA levels,[1],decreased significantly
same,RWE-induced increase of IL-13 expression in lung,[2],prevented this increase
